Data from patent US11166942B2 (PRAXIS BIOTECH LLC, priority 2018, dated 2021).

Columns and labels:
ATF4 = ATF4 expression inhibition assay (ATF4 5'UTR luciferase reporter, Tg-stressed HEK293T cells); format: cell-based, human; settings: Homo sapiens, HEK-293T, 3 h, 100 nM thapsigargin, 3 hours, HEK293T ATF4 luciferase reporter
Outline: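 HEK293T stably expressing luciferase fused downstream of human full-length ATF4 5′UTR, stressed with 100 nM thapsigargin plus compound (100 nM or 1 μM; IC50 series 0.1 nM to 1 μM) for 3 h at 37° C. Luminescence normalized to Tg alone (0%) and untreated cells (100% inhibition).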

[1] = tested on: Balb/c mice with immobilized hind limb, gastrocnemius; experiment: Immobilization-induced muscle atrophy; format: in vivo, mouse; settings: 10 mg/kg oral
Description: Wild type eight-weeks-old male Balb/c mice obtained from the vivarium Fundación Ciencia & Vida Chile (Santiago, Chile) were used. Mice were housed in independent plastic cages, fed ad libitum in a room maintained at 25° C. with a 12-h:12-h light:dark cycle.
Twenty-four hours before and during the 3 days of immobilization procedures, animals receive oral administration via feeding tubes (15 gauge) of vehicle (50% Polyethylene glycol 400 (Sigma-Aldrich P3265) in distilled water or 10 mg/kg of test compound formulated in vehicle.
One hindlimb is immobilized with a plastic stick placed over and under the limb and fixed with a medical adhesive bandage. Animals were daily monitored. The immobilization procedure prevents movement of the immobilized leg alone. After 3 days, the animals were sacrificed and gastrocnemius muscle is removed from both hindlimbs, the contralateral, non-immobilized leg being used as an internal control.
For in vivo measurements of protein synthesis, puromycin (Sigma-Aldrich, P8833) is prepared at 0.04 μmol/g body weight in a volume of 200 μl of PBS, and subsequently administered into the animals via intraperitoneal injection, 30 min prior to muscle collection.
Upon collection, muscles were immediately frozen in liquid nitrogen and stored at −80° C. […] Protein concentration in supernatants is determined using BCA Protein Assay Kit (Pierce). […]
Puromycin (12D10) (Merck Millipore), ATF4 (Abcam), Atrogin-1 (ECM Biosciences), MuRF-1 (Santa Cruz Biotechnology) and β-actin (Sigma-Aldrich) antibodies were used as primary antibodies. […] Quantification of protein bands is done by densitometry using ImageJ software.
Expression of ATF4 and the muscle atrophy markers, Atrogin-1 and MuRF-1, of gastrocnemius derived from mobilized and immobilized hind limbs of mice treated with vehicle or compound 58 are shown in FIG. 9C. […] The levels were normalized to β-actin expression and percentage is calculated as the percent relative to the expression of mobile hind limb from control mice (Vehicle) which corresponds to 100%. […]

SMILES: O=C(NN1CCN(C[C@@H](O)COc2ccc(Cl)c(F)c2)CC1)c1ccc2cc(Cl)ccc2n1 [Compound 58, (R)-6-chloro-N-(4-(3-(4-chloro-3-fluorophenoxy)-2-hydroxypropyl)piperazin-1-yl)quinoline-2-carboxamide]
- inhibition at 0.1 µM (ATF4; 100 nM test compound, read-out: % ATF4 inhibition at 100 nM): 86.5%
- IC50 (ATF4; read-out: ATF4 inhbition IC50): 5.7 nM
- inhibition at 1 µM (ATF4; 1 μM test compound, read-out: % ATF4 inhibition at 1 μM): 97.6%
- ATF4 expression in gastrocnemius ([1]; vs vehicle (FIG. 9D)): reduction
- Atrogin-1 expression in gastrocnemius ([1]; vs vehicle (FIG. 9E)): reduction
- MuRF-1 expression in gastrocnemius ([1]; vs vehicle (FIG. 9F)): reduction
